Holding throughout (assay): relative viability (nuclei count vs DMSO), 5 days (fraction); higher = more cells survive
Compound in the assay “Omipalisib + Lapatinib”: COc1ncc(-c2ccc3nccc(-c4ccnnc4)c3c2)cc1NS(=O)(=O)c1ccc(F)cc1F [Omipalisib] + CS(=O)(=O)CCNCc1ccc(-c2ccc3ncnc(Nc4ccc(OCc5cccc(F)c5)c(Cl)c4)c3c2)o1 [Lapatinib] (partner 2 µM)
The gist of the method:
(§1)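 Lung cancer cell lines were seeded in 1536-well plates and dosed by pin tool the next day, with either a single drug or a fixed anchor-drug dose combined with five library-drug doses (not always all listed) spaced in √10 steps. Five days later, one step fixed the cells and stained their nuclei (final 0.05% Triton X-100, 1% formaldehyde, 1 ug/ml Hoechst), and nuclei were counted on 4× images. Relative viability is the nuclei count in treated wells divided by the count in vehicle wells, and each value is the median of duplicate plates.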

Compound in the assay “Omipalisib + Pictilisib”: COc1ncc(-c2ccc3nccc(-c4ccnnc4)c3c2)cc1NS(=O)(=O)c1ccc(F)cc1F [Omipalisib] + CS(=O)(=O)N1CCN(Cc2cc3nc(-c4cccc5[nH]ncc45)nc(N4CCOCC4)c3s2)CC1 [Pictilisib] (partner 1 µM)
The method in brief: as §1

Compound in the assay “Omipalisib + Linsitinib”: COc1ncc(-c2ccc3nccc(-c4ccnnc4)c3c2)cc1NS(=O)(=O)c1ccc(F)cc1F [Omipalisib] + C[C@]1(O)C[C@@H](c2nc(-c3ccc4ccc(-c5ccccc5)nc4c3)c3c(N)nccn32)C1 [Linsitinib] (partner 1 µM)
The gist of the method:
as §1

Compound in the assay “Omipalisib + Tozasertib”: COc1ncc(-c2ccc3nccc(-c4ccnnc4)c3c2)cc1NS(=O)(=O)c1ccc(F)cc1F [Omipalisib] + Cc1cc(Nc2cc(N3CCN(C)CC3)nc(Sc3ccc(NC(=O)C4CC4)cc3)n2)n[nH]1 [Tozasertib] (partner 0.1 µM)
The gist of the method:
as §1

Compound in the assay “Omipalisib + AZD7762”: COc1ncc(-c2ccc3nccc(-c4ccnnc4)c3c2)cc1NS(=O)(=O)c1ccc(F)cc1F [Omipalisib] + NC(=O)Nc1cc(-c2cccc(F)c2)sc1C(=O)N[C@H]1CCCNC1 [AZD7762] (partner 0.2 µM)
The method in brief: as §1

Compound in the assay “Omipalisib + Olaparib”: COc1ncc(-c2ccc3nccc(-c4ccnnc4)c3c2)cc1NS(=O)(=O)c1ccc(F)cc1F [Omipalisib] + O=C(c1cc(Cc2n[nH]c(=O)c3ccccc23)ccc1F)N1CCN(C(=O)C2CC2)CC1 [Olaparib] (partner 8 µM)
The gist of the method:
as §1

As for CAL-12T, the relative viability with Omipalisib + Lapatinib (first compound 0.0003 µM) worked out at 0.787; in the assay with Omipalisib + Lapatinib (first compound 0.003 µM), 0.496; with Omipalisib + Lapatinib (first compound 0.03 µM), 0.475; with Omipalisib + Pictilisib (first compound 0.0003 µM), 0.579; in the assay with Omipalisib + Pictilisib (first compound 0.003 µM) it was 0.524; with Omipalisib + Pictilisib (first compound 0.03 µM), 0.385. The relative viability with Omipalisib + Linsitinib (first compound 0.0003 µM) came out at 0.75; with Omipalisib + Linsitinib (first compound 0.003 µM), 0.822; with Omipalisib + Linsitinib (first compound 0.03 µM), 0.513; in the assay with Omipalisib + Tozasertib (first compound 0.0003 µM), 0.306; in the assay with Omipalisib + Tozasertib (first compound 0.003 µM), 0.28; in the assay with Omipalisib + Tozasertib (first compound 0.03 µM), 0.151. Also, the relative viability with Omipalisib + AZD7762 (first compound 0.0003 µM) was determined as 0.705; with Omipalisib + AZD7762 (first compound 0.003 µM) it was 0.906; with Omipalisib + AZD7762 (first compound 0.03 µM), 0.615; with Omipalisib + Olaparib (first compound 0.0003 µM) it was 0.76; in the assay with Omipalisib + Olaparib (first compound 0.003 µM) it was 0.691; with Omipalisib + Olaparib (first compound 0.03 µM), 0.349.

On to NCI-H23, for which the relative viability in the assay with Omipalisib + Lapatinib (first compound 0.0003 µM) turned out to be 0.911; with Omipalisib + Lapatinib (first compound 0.003 µM) it was 0.862; with Omipalisib + Lapatinib (first compound 0.03 µM), 0.501; in the assay with Omipalisib + Pictilisib (first compound 0.0003 µM) it was 0.45; with Omipalisib + Pictilisib (first compound 0.003 µM) it was 0.373; with Omipalisib + Pictilisib (first compound 0.03 µM), 0.401. Moreover, the relative viability turned out to be 0.596 in the assay with Omipalisib + Linsitinib (first compound 0.0003 µM); 0.397 in the assay with Omipalisib + Linsitinib (first compound 0.003 µM); 0.346 with Omipalisib + Linsitinib (first compound 0.03 µM); 0.342 with Omipalisib + Tozasertib (first compound 0.0003 µM); 0.295 with Omipalisib + Tozasertib (first compound 0.003 µM); 0.265 with Omipalisib + Tozasertib (first compound 0.03 µM). The relative viability came out at 0.278 with Omipalisib + AZD7762 (first compound 0.0003 µM); 0.227 with Omipalisib + AZD7762 (first compound 0.003 µM); 0.223 in the assay with Omipalisib + AZD7762 (first compound 0.03 µM); 0.384 in the assay with Omipalisib + Olaparib (first compound 0.0003 µM); 0.242 in the assay with Omipalisib + Olaparib (first compound 0.003 µM); 0.143 with Omipalisib + Olaparib (first compound 0.03 µM).

Consider NCI-H1666, for which the relative viability was 0.502 with Omipalisib + Lapatinib (first compound 0.0003 µM); 0.298 in the assay with Omipalisib + Lapatinib (first compound 0.003 µM); 0.24 with Omipalisib + Lapatinib (first compound 0.03 µM); 0.406 with Omipalisib + Pictilisib (first compound 0.0003 µM); 0.335 with Omipalisib + Pictilisib (first compound 0.003 µM); 0.186 in the assay with Omipalisib + Pictilisib (first compound 0.03 µM). In addition, the relative viability came to 0.689 with Omipalisib + Linsitinib (first compound 0.0003 µM); 0.719 in the assay with Omipalisib + Linsitinib (first compound 0.003 µM); 0.41 with Omipalisib + Linsitinib (first compound 0.03 µM); 0.605 with Omipalisib + Tozasertib (first compound 0.0003 µM); 0.524 in the assay with Omipalisib + Tozasertib (first compound 0.003 µM); 0.552 in the assay with Omipalisib + Tozasertib (first compound 0.03 µM). In addition, the relative viability with Omipalisib + AZD7762 (first compound 0.0003 µM) worked out at 0.852; in the assay with Omipalisib + AZD7762 (first compound 0.003 µM), 0.81; with Omipalisib + AZD7762 (first compound 0.03 µM), 0.552; with Omipalisib + Olaparib (first compound 0.0003 µM), 0.687; with Omipalisib + Olaparib (first compound 0.003 µM), 0.749; in the assay with Omipalisib + Olaparib (first compound 0.03 µM), 0.686.

Take NCI-H650: the relative viability with Omipalisib + Lapatinib (first compound 0.0003 µM) turned out to be 0.816; with Omipalisib + Lapatinib (first compound 0.003 µM), 0.759; with Omipalisib + Lapatinib (first compound 0.03 µM) it was 0.499; in the assay with Omipalisib + Pictilisib (first compound 0.0003 µM) it was 0.867; in the assay with Omipalisib + Pictilisib (first compound 0.003 µM), 0.762; in the assay with Omipalisib + Pictilisib (first compound 0.03 µM), 0.631. The relative viability with Omipalisib + Linsitinib (first compound 0.0003 µM) is 0.76; with Omipalisib + Linsitinib (first compound 0.003 µM), 0.689; in the assay with Omipalisib + Linsitinib (first compound 0.03 µM), 0.47; with Omipalisib + Tozasertib (first compound 0.0003 µM), 0.665; with Omipalisib + Tozasertib (first compound 0.003 µM) it was 0.608; with Omipalisib + Tozasertib (first compound 0.03 µM), 0.396. Besides, the relative viability with Omipalisib + AZD7762 (first compound 0.0003 µM) came to 0.817; with Omipalisib + AZD7762 (first compound 0.003 µM) it was 0.766; in the assay with Omipalisib + AZD7762 (first compound 0.03 µM), 0.7; with Omipalisib + Olaparib (first compound 0.0003 µM), 0.366; with Omipalisib + Olaparib (first compound 0.003 µM) it was 0.33; in the assay with Omipalisib + Olaparib (first compound 0.03 µM), 0.245.

(Values after the supplement of paper PMC10307832.)
